Blank lines part the entries; values can stand above or below the compound they belong to. Calls of active or inactive are those of the source. No cut-off for these calls is given here.
Experiments:
MDA-MB-231 [1] = experiment: Antimetastatic activity against human MDA-MB-231 cells […] assessed as downregulation of MMP-9 at 30 uM incubated for 2 to 12 hrs by western blot analysis; assay type: functional, cell-based; details: time 2-12 hrs
MDA-MB-231 [2] = experiment: Antimetastatic activity against human MDA-MB-231 cells xenografted in BALB/c mouse assessed as decrease in plasma S1P levels at 50 mg/kg, ip for 28 days; assay type: functional, organism-based; details: time 28.0 day
HT-29 [3] = experiment: Induction of cell cycle arrest in human HT-29 cells assessed as accumulation at G0/G1 phase at 10 uM incubated for 24 hrs by PI staining based flow cytometry; assay type: functional
HT-29 [4] = experiment: Induction of cell cycle arrest in human HT-29 cells assessed as accumulation at G0/G1 phase at 30 uM incubated for 24 hrs by PI staining based flow cytometry; assay type: functional
HT-29 [5] = experiment: Induction of cell cycle arrest at G1 phase in human HT-29 cells assessed as increase in P21 expression at 30 uM incubated for 24 hrs by Western blot analysis; assay type: functional, cell-based
HT-29 [6] = experiment: Induction of cell cycle arrest at G0/G1 phase in human HT-29 cells assessed as decrease in p-Rb expression at 10 to 30 uM incubated for 24 hrs by Western blot analysis; assay type: functional, cell-based; details: dose 10-30 µM
HT-29 [7] = experiment: Induction of cell cycle arrest at G0/G1 phase in human HT-29 cells assessed as reduction in cyclinA expression at 10 to 30 uM incubated for 24 hrs by Western blot analysis; assay type: functional, cell-based; details: dose 10-30 µM
HT-29 [8] = experiment: Induction of cell cycle arrest at G0/G1 phase in human HT-29 cells assessed as reduction in cyclinE1 expression at 10 to 30 uM incubated for 24 hrs by Western blot analysis; assay type: functional, cell-based; details: dose 10-30 µM
HT-29 [9] = experiment: Induction of cell cycle arrest at G0/G1 phase in human HT-29 cells assessed as reduction in cyclinD1 expression at 10 to 30 uM incubated for 24 hrs by Western blot analysis; assay type: functional, cell-based; details: dose 10-30 µM
HT-29 [10] = experiment: Induction of cell cycle arrest at G0/G1 phase in human HT-29 cells assessed as reduction in CDK6 expression at 10 to 30 uM incubated for 24 hrs by Western blot analysis; assay type: functional, cell-based; details: dose 10-30 µM
MDA-MB-231 [11] = experiment: Induction of apoptosis in human MDA-MB-231 cells assessed as early apoptotic cells at 10 uM incubated for 48 hrs by Annexin V-FITC/PI staining based flow cytometry (reference value: 2.35 %); assay type: functional
HT-29 [12] = experiment: Induction of apoptosis in human HT-29 cells at 30 uM incubated for 48 hrs by Annexin V-FITC/PI staining based flow cytometry relative to control; assay type: functional
HT-29 [13] = experiment: Induction of apoptosis in human HT-29 cells assessed as increase in PARP cleavage at 30 uM measured after 48 hrs by western blot analysis; assay type: functional, cell-based
HT-29 [14] = experiment: Induction of apoptosis in human HT-29 cells assessed as increase in caspase 3 cleavage at 30 uM measured after 48 hrs by western blot analysis; assay type: functional, cell-based
HT-29 [15] = experiment: Induction of apoptosis in human HT-29 cells assessed as increase in caspase 8 cleavage at 30 uM measured after 48 hrs by western blot analysis; assay type: functional, cell-based
MDA-MB-231 [16] = experiment: Induction of cell cycle arrest at G0/G1 phase in human MDA-MB-231 cells at 20 uM incubated for 24 hrs by PI staining based flow cytometry; assay type: functional
MDA-MB-231 [17] = experiment: Induction of apoptosis in human MDA-MB-231 cells assessed as viable cells at 10 uM incubated for 48 hrs by Annexin V-FITC/PI staining based flow cytometry (reference value: 94.3 %); assay type: functional; details: read-out: Activity
MDA-MB-231 [18] = experiment: Induction of apoptosis in human MDA-MB-231 cells assessed as viable cells at 30 uM incubated for 48 hrs by Annexin V-FITC/PI staining based flow cytometry (reference value: 94.3 %); assay type: functional; details: read-out: Activity
MDA-MB-231 [19] = experiment: Antimigratory activity against human MDA-MB-231 cells assessed as reduction in cell migration at 20 uM incubated for 8 hrs by crystal violet staining microscopy based transwell migration assay; assay type: functional
[20] = Tmax in mouse at 50 mg/kg, po; assay type: ADME, organism-based; details: in vivo
[21] = Tmax in mouse at 50 mg/kg, ip; assay type: ADME, organism-based; details: in vivo
[22] = Cmax in mouse at 50 mg/kg, po; assay type: ADME, organism-based; parameters: dose 50 mg/kg, route po; details: in vivo
[23] = Cmax in mouse at 50 mg/kg, ip; assay type: ADME, organism-based; parameters: dose 50 mg/kg, route ip; details: in vivo
[24] = AUClast in mouse at 2 mg/kg, iv; assay type: ADME, organism-based; parameters: time 0 - last, dose 2 mg/kg, route iv; details: in vivo
[25] = AUClast in mouse at 50 mg/kg, po; assay type: ADME, organism-based; parameters: time 0 - last, dose 50 mg/kg, route po; details: in vivo
[26] = AUClast in mouse at 50 mg/kg, ip; assay type: ADME, organism-based; parameters: time 0 - last, dose 50 mg/kg, route ip; details: in vivo
[27] = Half life in mouse at 2 mg/kg, iv; assay type: ADME, organism-based; details: in vivo
[28] = Half life in mouse at 50 mg/kg, po; assay type: ADME, organism-based; details: in vivo
[29] = Half life in mouse at 50 mg/kg, ip; assay type: ADME, organism-based; details: in vivo
[30] = Clearance in mouse at 2 mg/kg, iv; assay type: ADME, organism-based; details: in vivo
[31] = Oral bioavailability in mouse at 50 mg/kg; assay type: ADME, organism-based; details: in vivo
[32] = Bioavailability in mouse at 50 mg/kg, ip; assay type: ADME, organism-based; details: in vivo
HT-29 [33] = experiment: Antitumor activity against human HT-29 cells xenografted in BALB/c mouse assessed as tumor growth inhibition at 50 mg/kg/day, ip for 3 weeks and measured every 3 days by caliper method; assay type: functional, organism-based
[34] = Toxicity in BALB/c mouse xenografted with human HT-29 cells assessed as change in body weight at 50 mg/kg/day, ip for 3 weeks and measured every 3 days; assay type: organism-based; details: in vivo, 504 h
MDA-MB-231 [35] = experiment: Antitumor activity against human MDA-MB-231 cells xenografted in BALB/c mouse assessed as tumor growth inhibition at 100 mg/kg/day, ip for 3 weeks and measured every 3 days by caliper method; assay type: functional, organism-based
MDA-MB-231 [36] = experiment: Antitumor activity against human MDA-MB-231 cells xenografted in BALB/c mouse assessed as inhibition in lung metastasis at 75 mg/kg, ip treated for 28 days by H and E staining based assay; assay type: functional, organism-based; details: time 28.0 day
[37] = Toxicity in BALB/c mouse xenografted with human MDA-MB-231 cells assessed as body weight change at 50 to 75 mg/kg, ip administrated for 28 days; assay type: organism-based; details: in vivo, 672 h, dose 50-75 mg/kg, time 28 day
MDA-MB-231 [38] = experiment: Antimetastatic activity against human MDA-MB-231 cells […] assessed as inhibition of NF-kappaB p65 phosphorylation at 30 uM incubated for 2 to 12 hrs by Western blot analysis; assay type: functional, cell-based; details: time 2-12 hrs
MDA-MB-231 [39] = experiment: Antimetastatic activity against human MDA-MB-231 cells […] assessed as inhibition of FSCN1 phosphorylation at 30 uM incubated for 2 to 12 hrs by western blot analysis; assay type: functional, cell-based; details: time 2-12 hrs
MDA-MB-231 [40] = experiment: Antimetastatic activity against human MDA-MB-231 cells […] assessed as upregulation of phosphorylated beta-catenin at 30 uM incubated for 2 to 12 hrs by western blot analysis; assay type: functional, cell-based; details: time 2-12 hrs
MDA-MB-231 [41] = experiment: Antimetastatic activity against human MDA-MB-231 cells xenografted in BALB/c mouse assessed as decrease in plasma S1P levels at 75 mg/kg, ip for 28 days; assay type: functional, organism-based; details: time 28.0 day
MDA-MB-231 [42] = experiment: Induction of apoptosis in human MDA-MB-231 cells assessed as necrotic cells at 10 uM incubated for 48 hrs by Annexin V-FITC/PI staining based flow cytometry (reference value: 1.42 %); assay type: functional
MDA-MB-231 [43] = experiment: Induction of apoptosis in human MDA-MB-231 cells assessed as late apoptotic cells at 10 uM incubated for 48 hrs by Annexin V-FITC/PI staining based flow cytometry (reference value: 1.96 %); assay type: functional
MDA-MB-231 [44] = experiment: Induction of apoptosis in human MDA-MB-231 cells assessed as early apoptotic cells at 30 uM incubated for 48 hrs by Annexin V-FITC/PI staining based flow cytometry (reference value: 2.35 %); assay type: functional
MDA-MB-231 [45] = experiment: Induction of apoptosis in human MDA-MB-231 cells assessed as late apoptotic cells at 30 uM incubated for 48 hrs by Annexin V-FITC/PI staining based flow cytometry (reference value: 1.96 %); assay type: functional
MDA-MB-231 [46] = experiment: Induction of apoptosis in human MDA-MB-231 cells assessed as necrotic cells at 30 uM incubated for 48 hrs by Annexin V-FITC/PI staining based flow cytometry (reference value: 1.42 %); assay type: functional
MDA-MB-231 [47] = experiment: Antimigratory activity against human MDA-MB-231 cells assessed as inhibition of cell migration in human MDA-MB-231 cells at 20 uM incubated for 15 hrs by wound healing assay; assay type: functional, cell-based
CAL-51 = experiment: Antimigratory activity against human CAL-51 cells assessed as inhibition in cell migration at 30 uM incubated for 16 hrs by crystal violet staining microscopy based transwell migration assay; assay type: functional
Sphingosine kinase 2 = molecular target: T1, Sphingosine kinase 2 (Homo sapiens, UniProt Q9NRA0)
T1 sequence (Q9NRA0 whole entry): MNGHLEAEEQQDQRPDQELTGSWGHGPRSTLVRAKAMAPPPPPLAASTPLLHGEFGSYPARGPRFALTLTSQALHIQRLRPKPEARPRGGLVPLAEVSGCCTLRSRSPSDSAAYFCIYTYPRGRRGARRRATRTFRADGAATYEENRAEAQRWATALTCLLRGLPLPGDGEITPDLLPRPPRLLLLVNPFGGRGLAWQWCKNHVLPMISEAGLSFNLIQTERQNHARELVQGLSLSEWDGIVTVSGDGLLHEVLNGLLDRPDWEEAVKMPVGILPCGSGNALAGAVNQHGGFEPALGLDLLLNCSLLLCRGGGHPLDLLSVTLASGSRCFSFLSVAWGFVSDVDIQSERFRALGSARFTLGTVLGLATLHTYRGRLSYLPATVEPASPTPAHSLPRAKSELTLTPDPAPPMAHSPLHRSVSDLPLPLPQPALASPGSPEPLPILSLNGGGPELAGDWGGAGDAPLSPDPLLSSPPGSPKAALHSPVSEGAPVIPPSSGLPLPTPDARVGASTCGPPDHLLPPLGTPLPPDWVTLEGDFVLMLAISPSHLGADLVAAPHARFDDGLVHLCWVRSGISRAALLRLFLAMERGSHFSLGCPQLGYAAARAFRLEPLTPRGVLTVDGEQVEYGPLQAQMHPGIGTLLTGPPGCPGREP

Tmax [20]: 0.83 h
Tmax [21]: 0.18 h
Cmax [22]: 171 ng/mL
Cmax [23]: 7860 ng/mL
AUC(0-t) [24]: 408 ng·h/mL
AUC(0-t) [25]: 242 ng·h/mL
AUC(0-t) [26]: 8060 ng·h/mL
half-life [27]: 2.23 h
half-life [28]: 8.13 h
half-life [29]: 4.2 h
clearance [30]: 81.1 mL/min/kg
bioavailability [31]: 2.38%
bioavailability [32]: 79%
Structure (SMILES): Cc1cc(OCc2ccc(CN3CCC[C@@H]3CO)cc2)cc(CS(=O)(=O)c2ccccc2)c1Br
Activity (MDA-MB-231 [1]): Active
Activity (MDA-MB-231 [2]): Active
Activity (HT-29 [3]): Active
Activity (HT-29 [4]): Active
Activity (HT-29 [5]): Active
Activity (HT-29 [6]): Active
Activity (HT-29 [7]): Active
Activity (HT-29 [8]): Active
Activity (HT-29 [9]): Active
Activity (HT-29 [10]): Active
Activity (MDA-MB-231 [11]): 3.67%
Activity (HT-29 [12]): 50%
Activity (HT-29 [13]): Active
Activity (HT-29 [14]): Active
Activity (HT-29 [15]): Active
Activity (MDA-MB-231 [16]): Active
viability at 10 µM (MDA-MB-231 [17]): 65.4%
viability at 30 µM (MDA-MB-231 [18]): 36.4%
Activity (MDA-MB-231 [19]): Active
Activity (HT-29 [33]): Active
Activity [34]: Non-Toxic
Activity (MDA-MB-231 [35]): Active
Activity (MDA-MB-231 [36]): Active
Activity [37]: Non-Toxic
Activity (MDA-MB-231 [38]): Active
Activity (MDA-MB-231 [39]): Active
Activity (MDA-MB-231 [40]): Active
Activity (MDA-MB-231 [41]): Active
Activity (MDA-MB-231 [42]): 3.69%
Activity (MDA-MB-231 [43]): 9.16%
Activity (MDA-MB-231 [44]): 32.2%
Activity (MDA-MB-231 [45]): 24.5%
Activity (MDA-MB-231 [46]): 6.82%
Activity (MDA-MB-231 [47]): Active
Activity (CAL-51): Active

IC50 (Sphingosine kinase 2): > 10 µM
Structure (SMILES): Cc1cc(CS(=O)(=O)c2ccc([N+](=O)[O-])cc2)cc(OCc2ccc(CN3CCC[C@@H]3CO)cc2)c1

Reference: ChEMBL document CHEMBL5154877, “Novel Sphingosine Kinase 1 Inhibitor Suppresses Growth of Solid Tumor and Inhibits the Lung Metastasis of Triple-Negative Breast Cancer” (J Med Chem, 2022)
